From US9637493B2, “Substituted pyrrolopyrimidines as HDM2 inhibitors” (Merck Sharp & Dohme Corp., priority 2012, dated 2017)

Molecular target: HDM2 (Homo sapiens (Human), UniProt Q00987)
Experiment: HDM2 FRET assay (inhibition of p53 peptide binding to HDM2)
Details: truncated HDM2 residues 17 to 125, 0.5 nM; FITC labeled 8-mer peptide 3 nM; two hour incubation at room temperature
Procedure: Methods: An HDM2 FRET assay was developed to assess the compounds' inhibitory activity towards binding of p53 protein. […] (containing p53 binding surface, Science (1994) 265, 346-355), with N-terminal His and Thioredoxin tag was generated in pET32a expression vector and expressed in E. coli strain BL21(DE3)Rosetta. Protein was purified using Ni-affinity chromatography, followed by size exclusion chromatography using Superdex 75 26/60 column. […] After two hour incubation at room temperature in a humidified chamber plates were read on EnVision plate reader with the following settings: excitation: UV, […], two emission filters: 520 nm and 495 nm respectively. […] IC50 DETERMINATIONS: Dose-response curves were plotted from the inhibition data, from 10 point serial dilutions of inhibitory compounds. Concentration of compound was plotted against em520/Cem495 ratio signal. To generate IC50 values, the dose-response curves were fitted to a standard sigmoidal curve and IC50 values were derived by nonlinear regression analysis.

Sequence of HDM2 (Q00987 17-125): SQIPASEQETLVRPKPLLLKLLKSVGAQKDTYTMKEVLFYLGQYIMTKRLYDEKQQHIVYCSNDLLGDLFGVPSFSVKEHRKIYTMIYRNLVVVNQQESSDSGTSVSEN

**Q.** For C[C@H]1CC[C@H](Cn2ccc3nc(-c4noc(=O)[nH]4)nc(-c4cccc(Cl)c4)c32)CC1 [Example 4.2, 3-{4-(3-chlorophenyl)-5-[(trans-4-methylcyclohexyl)methyl]-5H-pyrrolo[3,2-d]pyrimidin-2-yl}-1,2,4-oxadiazol-5(4H)-one], which IC50 is on record?
**A.** 132 nM

**Q.** C[C@H]1CC[C@H](Cn2ccc3nc(C(=O)O)nc(-c4cncc(Cl)c4)c32)CC1 [Example 4.3, 4-(5-chloropyridin-3-yl)-5-[(trans-4-methylcyclohexyl)methyl]-5H-pyrrolo[3,2-d]pyrimidine-2-carboxylic acid] was tested. Which IC50 did it give?
**A.** 247 nM

**Q.** Which IC50 does the source give for C[C@H]1CC[C@H](Cn2ccc3nc(-c4noc(=O)[nH]4)nc(-c4cncc(Cl)c4)c32)CC1 [Example 4.4, 3-{4-(5-chloropyridin-3-yl)-5-[(trans-4-methylcyclohexyl)methyl]-5H-pyrrolo[3,2-d]pyrimidin-2-yl}-1,2,4-oxadiazol-5(4H)-one] here?
**A.** 57 nM

**Q.** C[C@H]1CC[C@H](Cn2ccc3nc(-c4n[nH]c(=O)o4)nc(-c4cncc(Cl)c4)c32)CC1 [Example 4.5, 5-{4-(5-chloropyridin-3-yl)-5-[(trans-4-methylcyclohexyl)methyl]-5H-pyrrolo[3,2-d]pyrimidin-2-yl}-1,3,4-oxadiazol-2(3H)-one] was tested. Which IC50 did it give?
**A.** 95 nM

**Q.** How did the IC50 turn out when Cc1cn(C[C@H]2CC[C@H](C)CC2)c2c(-c3cccc(Cl)c3)nc(C(=O)O)nc12 [Example 5.1, 4-(3-chlorophenyl)-7-methyl-5-[(trans-4-methylcyclohexyl)methyl]-5H-pyrrolo[3,2-d]pyrimidine-2-carboxylic acid] was run?
**A.** 226 nM

**Q.** Which IC50 does the source give for Cc1cn(C[C@H]2CC[C@H](C)CC2)c2c(-c3cccc(Cl)c3)nc(-c3noc(=O)[nH]3)nc12 [Example 5.2, 3-{4-(3-chlorophenyl)-7-methyl-5-[(trans-4-methylcyclohexyl)methyl]-5H-pyrrolo[3,2-d]pyrimidin-2-yl}-1,2,4-oxadiazol-5(4H)-one] here?
**A.** 107 nM

**Q.** Cc1cn(C[C@H]2CC[C@H](C)CC2)c2c(-c3cncc(Cl)c3)nc(C(=O)O)nc12 [Example 5.3, 4-(5-chloropyridin-3-yl)-7-methyl-5-[(trans-4-methylcyclohexyl)methyl]-5H-pyrrolo[3,2-d]pyrimidine-2-carboxylic acid] was tested. Which IC50 did it give?
**A.** 88 nM

**Q.** With Cc1cn(C[C@H]2CC[C@H](C)CC2)c2c(-c3cncc(Cl)c3)nc(-c3noc(=O)[nH]3)nc12 [Example 5.4, 3-{4-(5-chloropyridin-3-yl)-7-methyl-5-[(trans-4-methylcyclohexyl)methyl]-5H-pyrrolo[3,2-d]pyrimidin-2-yl}-1,2,4-oxadiazol-5(4H)-one] as the molecule, how does the IC50 read?
**A.** 36 nM

**Q.** For C[C@H]1CC[C@H](Cn2cc(-c3ccccc3)c3nc(C(=O)O)nc(-c4cncc(Cl)c4)c32)CC1 [Example 5.5, 4-(5-chloropyridin-3-yl)-5-[(trans-4-methylcyclohexyl)methyl]-7-phenyl-5H-pyrrolo[3,2-d]pyrimidine-2-carboxylic acid], which IC50 is on record?
**A.** 72 nM

**Q.** How did the IC50 turn out when C[C@H]1CC[C@H](Cn2cc(Cc3ccccc3)c3nc(-c4n[nH]c(=O)o4)nc(-c4cncc(Cl)c4)c32)CC1 [Example 5.6, 5-{7-benzyl-4-(5-chloropyridin-3-yl)-5-[(trans-4-methylcyclohexyl)methyl]-5H-pyrrolo[3,2-d]pyrimidin-2-yl}-1,3,4-oxadiazol-2(3H)-one] was run?
**A.** 54 nM

**Q.** How did the IC50 turn out when CC(C)Cc1cn(C[C@H]2CC[C@H](C)CC2)c2c(-c3cncc(Cl)c3)nc(C(=O)O)nc12 [Example 5.7, 4-(5-chloropyridin-3-yl)-5-[(trans-4-methylcyclohexyl)methyl]-7-(2-methylpropyl)-5H-pyrrolo[3,2-d]pyrimidine-2-carboxylic acid] was run?
**A.** 71 nM

**Q.** For CC(C)Cc1cn(C[C@H]2CC[C@H](C)CC2)c2c(-c3cncc(Cl)c3)nc(-c3noc(=O)[nH]3)nc12 [Example 5.8, 3-[4-(5-chloropyridin-3-yl)-5-[(trans-4-methylcyclohexyl)methyl]-7-(2-methylpropyl)-5H-pyrrolo[3,2-d]pyrimidin-2-yl]-1,2,4-oxadiazol-5(4H)-one], which IC50 is on record?
**A.** 35 nM

**Q.** For C[C@H]1CC[C@H](Cn2cc(CCc3cccnc3)c3nc(C(=O)O)nc(-c4cncc(Cl)c4)c32)CC1 [Example 6.1, 4-(5-chloropyridin-3-yl)-5-[(trans-4-methylcyclohexyl)methyl]-7-(2-pyridin-3-ylethyl)-5H-pyrrolo[3,2-d]pyrimidine-2-carboxylic acid], which IC50 is on record?
**A.** 47 nM

**Q.** For C[C@H]1CC[C@H](Cn2cc(CCc3cccnc3)c3nc(-c4noc(=O)[nH]4)nc(-c4cncc(Cl)c4)c32)CC1 [Example 6.2, 3-[4-(5-chloropyridin-3-yl)-5-[(trans-4-methylcyclohexyl)methyl]-7-(2-pyridin-3-ylethyl)-5H-pyrrolo[3,2-d]pyrimidin-2-yl]-1,2,4-oxadiazol-5(4H)-one], which IC50 is on record?
**A.** 13 nM

**Q.** For C[C@H]1CC[C@H](Cn2cc(Cc3cccnc3)c3nc(-c4noc(=O)[nH]4)nc(-c4cncc(Cl)c4)c32)CC1 [Example 7.1, 3-[4-(5-chloropyridin-3-yl)-5-[(trans-4-methylcyclohexyl)methyl]-7-(pyridin-3-ylmethyl)-5H-pyrrolo[3,2-d]pyrimidin-2-yl]-1,2,4-oxadiazol-5(4H)-one], which IC50 is on record?
**A.** 52 nM

**Q.** With C[C@H]1CC[C@H](Cn2c(C(F)c3ccccc3F)cc3nc(-c4noc(=O)[nH]4)nc(-c4cncc(Cl)c4)c32)CC1 (stereo partly drawn) [Example 8.2, 3-{4-(5-chloropyridin-3-yl)-6-[fluoro(2-fluorophenyl)methyl]-5-[(trans-4-methylcyclohexyl)methyl]-5H-pyrrolo[3,2-d]pyrimidin-2-yl}-1,2,4-oxadiazol-5(4H)-one] as the molecule, how does the IC50 read?
**A.** 2 nM
